Experiments:
Assay type in all cases: cell-based
ER-α [1] = target: T1, ER-α (Homo sapiens, UniProt P03372); experiment: ER-α in Cell Western Assay (SP1); settings: MCF-7 cells, SP1 rabbit monoclonal Ab, 4 or 24 hr post compound addition, read-out: ER In-Cell Western Assay (SP1); for Emax: MCF7, Max Response; for DC50: IC50
T1 construct: endogenous in cells; host or cells: MCF-7
T1 sequence (P03372 1-595): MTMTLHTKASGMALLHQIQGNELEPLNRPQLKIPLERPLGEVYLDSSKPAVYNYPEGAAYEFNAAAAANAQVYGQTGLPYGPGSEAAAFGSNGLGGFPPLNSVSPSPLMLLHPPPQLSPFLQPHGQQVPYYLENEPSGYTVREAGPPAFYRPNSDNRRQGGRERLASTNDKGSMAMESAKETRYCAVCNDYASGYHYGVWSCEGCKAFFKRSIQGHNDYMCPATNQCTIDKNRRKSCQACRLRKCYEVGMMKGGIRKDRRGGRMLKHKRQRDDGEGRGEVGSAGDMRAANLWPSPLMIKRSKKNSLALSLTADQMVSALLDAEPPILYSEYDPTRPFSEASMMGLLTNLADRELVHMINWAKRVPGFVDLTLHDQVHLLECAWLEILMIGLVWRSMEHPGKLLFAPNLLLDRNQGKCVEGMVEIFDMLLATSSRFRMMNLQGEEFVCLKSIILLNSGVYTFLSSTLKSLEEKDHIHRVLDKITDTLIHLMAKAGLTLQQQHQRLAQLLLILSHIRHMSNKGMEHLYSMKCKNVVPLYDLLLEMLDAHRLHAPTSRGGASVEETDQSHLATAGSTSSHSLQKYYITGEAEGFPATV
Description: (§1) MCF-7 cells were adjusted to a concentration of 200,000 cells per mL in RPMI containing 10% charcoal-stripped FBS and 20 mM HEPES. 16 microliters of the cell suspension (3200 cells) was added to each well of a poly-D-lysine 384 well plate, and the cells were incubated overnight to allow the cells to adhere. The following day an eleven point, serial semilog dilution of each compound was added to the cells in 16 μL at a final concentration ranging from 0.3-0.000003 μM. At 4 or 24 hr post compound addition, the cells were fixed (10% formalin in PBS) for 20 minutes. Cells were permeabalized in PBS 0.1% Triton and blocked with LICOR blocking buffer (50 μl/well, 90′). The wells were then incubated overnight at 4° C. with SP1 rabbit monoclonal Ab (Thermo Scientific) diluted 1:1000 in LICOR blocking buffer/0.1% Tween-20. Wells which were treated with blocking buffer with Tween but no antibody were used as a background control. Wells were washed with 0.1% Tween-20/PBS and then incubated in goat anti-rabbit IRDye™ 800CW (LICOR Inc.; 1:1000) and DRAQ5 DNA dye (1:2000 for 2 mM stock) diluted in LICOR blocking buffer containing 0.1% Tween-20 and 0.01% SDS for 60 minutes. Cells were washed (50 μl/well, 5′ each) in 0.1% Tween-20/PBS. Plates were scanned on a LICOR Odyssey infrared imaging system. Integrated intensities in the 800 nm channel and 700 nm channel were measured to determine levels of ER and DNA respectively. Percent ER levels were determined as follows: (Integrated intensity 800 nm sample/integrated intensity 700 nm sample)/(Integrated intensity 800 nm untreated cells/integrated intensity 700 nm untreated cells)×100=% ER levels.

MCF-7 cells = experiment: Breast Cancer Cell Viability Assay (MCF7 Viability Assay); settings: 5 days' compound exposure, CellTiter-Glo; for IC50: Homo sapiens, MCF7, 120 h
Description: MCF-7 cells were adjusted to a concentration of 20,000 cells per mL in RPMI containing 10% FBS and 20 mM HEPES. 16 microliters of the cell suspension (320 cells) was added to each well of a 384 well plate, and the cells were incubated overnight to allow the cells to adhere. The following day an eleven point, serial semilog dilution of each compound was added to the cells in 16 μL at a final concentration ranging from 0.3-0.000003 μM. After 5 days' compound exposure, 16 μL of CellTiter-GLo (Promega, Madison Wis.) was added to the cells the relative luminescence units (RLUs) of each well was determined. CellTiter-Glo added to 32 μL of medium without cells was used to obtain a background value. The Percent viability of each sample was determined as follows: (RLU sample-RLU background/RLU untreated cells-RLU background)×100=% viability.

ER-α [2] = target: T1, ER-α; experiment: ER-α In Cell Western Assay (ER1D5); settings: MCF-7 cells, ER1D5 antibody, 4 or 24 hr post compound addition, read-out: ER In-Cell Western Assay (ER1D5); for Emax: MCF7, Max Response; for DC50: IC50
Description: as §1, with “with ER1D5 (Santa Cruz Biotechnology)” for “with SP1 rabbit monoclonal Ab (Thermo Scientific)”, “diluted 1:100” for “diluted 1:1000”, “goat anti-mouse” for “goat anti-rabbit”

Row | Emax (ER-α [1]) | DC50 (ER-α [1]) | IC50 (MCF-7 cells) | Structure (SMILES) | MCF7 Viability Assay Max Response (MCF-7 cells) | Emax (ER-α [2]) | DC50 (ER-α [2])
1 | 60 to 85% | ≤ 1 nM | ≤ 1 nM | CC1=C(c2cccc(O)c2)C(c2ccc(OC[C@H](C)N3CCCCC3)cc2)Oc2ccc(O)cc21 (stereo partly drawn) [Example 1, 3-(3-Hydroxyphenyl)-4-methyl-2-(4-((S)-2-(piperidin-1-yl)propoxy)phenyl)-2H-chromen-6-ol] | ++ (++ = a single % value ≧50%) | 40 to 65% | ≤ 1 nM
2 | ≥ 85% | ≤ 1 nM | ≤ 1 nM | CC1=C(c2cc(O)ccc2F)C(c2ccc(OC[C@H](C)N3CC[C@@H](C)C3)cc2)Oc2ccc(O)cc21 (stereo partly drawn) [Example 62, 3-(2-Fluoro-5-hydroxyphenyl)-4-methyl-2-(4-((S)-2-((R)-3-methylpyrrolidin-1-yl)propoxy)phenyl)-2H-chromen-6-ol] | ++ (++ = a single % value ≧50%) |  | 
3 | 60 to 85% | ≤ 1 nM | ≤ 1 nM | CC1=C(c2ccc(F)cc2)C(c2ccc(OC[C@H](C)N3CCC[C@H]3C)cc2)Oc2ccc(O)cc21 (stereo partly drawn) [Example 63, 3-(4-Fluorophenyl)-4-methyl-2-(4-((S)-2-((R)-2-methylpyrrolidin-1-yl)propoxy)phenyl)-2H-chromen-6-ol] | ++ (++ = a single % value ≧50%) |  | 
4 | ≥ 85% | ≤ 1 nM | ≤ 1 nM | CC1=C(c2cccc(O)c2)C(c2ccc(OC[C@H](C)N3CC[C@@H](F)C3)cc2)Oc2ccc(O)cc21 (stereo partly drawn) [Example 64, 2-(4-((S)-2-((R)-3-Fluoropyrrolidin-1-yl)propoxy)phenyl)-3-(3-hydroxyphenyl)-4-methyl-2H-chromen-6-ol] | ++ (++ = a single % value ≧50%) |  | 
5 | 60 to 85% | > 1 nM | > 1 nM | CC1=C(c2ccc(C(F)(F)F)c(O)c2)C(c2ccc(OC[C@H](C)N3CC[C@@H](C)C3)cc2)Oc2ccc(O)cc21 (stereo partly drawn) [Example 68, 3-(3-Hydroxy-4-(trifluoromethyl)phenyl)-4-methyl-2-(4-((S)-2-((R)-3-methylpyrrolidin-1-yl)propoxy)phenyl)-2H-chromen-6-ol] | ++ (++ = a single % value ≧50%) |  | 
6 | 60 to 85% | ≤ 1 nM | > 1 nM | CC1=C(c2ccc(O)c(C(F)(F)F)c2)C(c2ccc(OC[C@H](C)N3CC[C@@H](C)C3)cc2)Oc2ccc(O)cc21 (stereo partly drawn) [Example 69, 3-(4-Hydroxy-3-(trifluoromethyl)phenyl)-4-methyl-2-(4-((S)-2-((R)-3-methylpyrrolidin-1-yl)propoxy)phenyl)-2H-chromen-6-ol] | ++ (++ = a single % value ≧50%) |  | 
7 | 60 to 85% | ≤ 1 nM | > 1 nM | CC1=C(c2ccc(F)cc2)C(c2ccc(OC[C@H](C)N3CCOCC3)cc2)Oc2ccc(O)cc21 (stereo partly drawn) [Example 70, 3-(4-Fluorophenyl)-4-methyl-2-(4-((S)-2-morpholinopropoxy)phenyl)-2H-chromen-6-ol] | ++ (++ = a single % value ≧50%) |  | 
8 | 60 to 85% | ≤ 1 nM | > 1 nM | CC1=C(c2ccc(F)cc2)C(c2ccc(OC[C@H](C)N3CC4CC4C3)cc2)Oc2ccc(O)cc21 (stereo partly drawn) [Example 71, 2-(4-((2S)-2-(3-Azabicyclo[3.1.0]hexan-3-yl)propoxy)phenyl)-3-(4-fluorophenyl)-4-methyl-2H-chromen-6-ol] | ++ (++ = a single % value ≧50%) |  | 

Row | Structure (SMILES) | Emax (ER-α [1]) | DC50 (ER-α [1]) | IC50 (MCF-7 cells) | MCF7 Viability Assay Max Response (MCF-7 cells) | Emax (ER-α [2]) | DC50 (ER-α [2])
9 | CC1=C(c2cccc(O)c2)C(c2ccc(OC[C@H](C)N3CC[C@@H](C)C3)cc2)Oc2ccc(O)cc21 (mixture of isomers) [Example 2, 3-(3-Hydroxyphenyl)-4-methyl-2-(4-((S)-2-((R)-3-methylpyrrolidin-1-yl)propoxy)phenyl)-2H-chromen-6-ol] | ≥ 85% | ≤ 1 nM | ≤ 1 nM | ++ (++ = a single % value ≧50%) | ≥ 65% | ≤ 1 nM
10 | CC1=C(c2ccc(F)cc2)C(c2ccc(OC[C@H](C)N3CC[C@@H](C)C3)cc2)Oc2ccc(O)cc21 (mixture of isomers) [Example 30, 3-(4-Fluorophenyl)-4-methyl-2-(4-((S)-2-((R)-3-methylpyrrolidin-1-yl)propoxy)phenyl)-2H-chromen-6-ol] | 60 to 85% | ≤ 1 nM | ≤ 1 nM | ++ (++ = a single % value ≧50%) | ≥ 65% | ≤ 1 nM
11 | CC1=C(c2cccc(O)c2)[C@H](c2ccc(OC[C@H](C)N3CC[C@@H](C)C3)cc2)Oc2ccc(O)cc21 (single isomer, unassigned) [Example 2a] | ≥ 85% | ≤ 1 nM | ≤ 1 nM | ++ (++ = a single % value ≧50%) | ≥ 65% | ≤ 1 nM
12 | CC1=C(c2cccc(O)c2)[C@@H](c2ccc(OC[C@H](C)N3CC[C@@H](C)C3)cc2)Oc2ccc(O)cc21 (single isomer, unassigned) [Example 2b] | ≥ 85% | > 1 nM | > 1 nM | ++ (++ = a single % value ≧50%) | ≥ 65% | > 1 nM
13 | CC1=C(c2cccc(O)c2)C(c2ccc(OC[C@H](C)N3C4CCC3CC4)cc2)Oc2ccc(O)cc21 (stereo partly drawn) [Example 67, 2-(4-((S)-2-(7-Azabicyclo[2.2.1]heptan-7-yl)propoxy)phenyl)-3-(3-hydroxyphenyl)-4-methyl-2H-chromen-6-ol] | < 60% | ≤ 1 nM | ≤ 1 nM | ++ (++ = a single % value ≧50%) |  | 

— US9078871B2, “Estrogen receptor modulators and uses thereof” (SERAGON PHARMACEUTICALS, INC., priority 2010, dated 2015)
